Assay [1] deals with Phakopsora pachyrhizi (Asian soybean rust). Nature of the assay: Phakopsora pachyrhizi soybean leaf disk test after whole plant spray. It counts as in vivo. Particulars: single active ingredient, evaluation 11 to 14 days after inoculation. From the text: (§1) A synergistic effect exists whenever the action of an active ingredient combination is greater than the sum of the actions of the individual components. The action to be expected E for a given active ingredient combination obeys the so-called COLBY formula and can be calculated as follows (COLBY, S. R. “Calculating synergistic and antagonistic responses of herbicide combination”. Weeds, Vol. 15, pages 20-22; 1967): • ppm=milligrams of active ingredient (=a.i.) per liter of spray mixture • X=% action by active ingredient A) using p ppm of active ingredient • Y=% action by active ingredient B) using q ppm of active ingredient.
(§2) According to COLBY, the expected (additive) action of active ingredients A)+B) using p+q ppm of active ingredient is
(§3) If the action actually observed (O) is greater than the expected action (E), then the action of the combination is super-additive, i.e. there is a synergistic effect. In mathematical terms, synergism corresponds to a positive value for the difference of (O-E). In the case of purely complementary addition of activities (expected activity), said difference (O-E) is zero. A negative value of said difference (O-E) signals a loss of activity compared to the expected activity.
Phakopsora pachyrhizi (Soybean Rust):
Whole soybean plants are treated with the recited active ingredients 4 weeks after planting. 1 day after spraying leaf disks are cut from the first trifoliate leaf. Five repetitions at each rate are conducted. The leaf disks are inoculated with Phakopsora pachyrhizi (Asian soybean rust) one day after treatment. Evaluation of the leaf disks is conducted 11 to 14 days after inoculation and the activity is derived from the relation of the treated vs untreated, infested check. The rates of the active ingredients used are given in Table as g active ingredient (a.i.)/ha.

Assay [2] deals with Glomerella lagenarium syn. Colletotrichum lagenarium (Anthracnose of cucurbits). Nature of the assay: Glomerella lagenarium liquid culture growth inhibition (microtiter plate, PDB). It counts as cell-based. To be noted: single active ingredient, 72 hrs. From the text:
A synergistic effect exists whenever the action of an active ingredient combination is greater than the sum of the actions of the individual components. The action to be expected E for a given active ingredient combination obeys the so-called COLBY formula and can be calculated as follows (COLBY, S. R. “Calculating synergistic and antagonistic responses of herbicide combination”. Weeds, Vol. 15, pages 20-22; 1967): • ppm=milligrams of active ingredient (=a.i.) per liter of spray mixture • X=% action by active ingredient A) using p ppm of active ingredient • Y=% action by active ingredient B) using q ppm of active ingredient. According to COLBY, the expected (additive) action of active ingredients A)+B) using p+q ppm of active ingredient is If the action actually observed (O) is greater than the expected action (E), then the action of the combination is super-additive, i.e. there is a synergistic effect. In mathematical terms, synergism corresponds to a positive value for the difference of (O-E). In the case of purely complementary addition of activities (expected activity), said difference (O-E) is zero. A negative value of said difference (O-E) signals a loss of activity compared to the expected activity. Glomerella Lagenarium Syn. Colletotrichum lagenarium (Anthracnose of Cucurbits): Conidia of the fungus from cryogenic storage were directly mixed into nutrient broth (PDB potato dextrose broth). A DMSO solution of the test compounds was placed into a microtiter plate (96-well format) and the nutrient broth containing the fungal spores was added to it. The test plates were incubated at 24 C and the inhibition of growth was determined photometrically after 72 hrs at 620 nm.

The test system of assay [3] is Septoria tritici (leaf blotch). Nature of the assay: Septoria tritici liquid culture growth inhibition (microtiter plate, PDB). It counts as cell-based. To be noted: single active ingredient, 72 hrs.
Description: as §1, §2, §3
Septoria tritici (Leaf Blotch):
Conidia of the fungus from cryogenic storage were directly mixed into nutrient broth (PDB potato dextrose broth). A DMSO solution of the test compounds was placed into a microtiter plate (96-well format) and the nutrient broth containing the fungal spores was added to it. The test plates were incubated at 24 C and the inhibition of growth was determined photometrically after 72 hrs.

`O=C(Nc1ccccc1F)c1ccc(-c2noc(C(F)(F)F)n2)cc1` [Flufenoxadiazam, flufenoxadiazam]: the “Observed Activity (%)” value in assay [1] (0.1 g ai/ha) came out at 3%; in assay [1] (0.3 g ai/ha), 5%; in assay [1] (0.9 g ai/ha), 31%; in assay [2] (0.74 g ai/ha), 20%; in assay [2] (2.22 g ai/ha), 20%; in assay [2] (6.66 g ai/ha), 50%. For the same molecule, in assay [2] (20 g ai/ha, 24 C, 620 nm), the “Observed Activity (%)” value stood at 90%.
In the case of inpyrfluxam, the “Observed Activity (%)” value came out at 13% in assay [1] (0.1 g ai/ha); 25% in assay [1] (0.3 g ai/ha); 68% in assay [1] (0.9 g ai/ha); 20% in assay [3] (0.0246 g ai/ha); 70% in assay [3] (0.074 g ai/ha); 90% in assay [3] (0.22 g ai/ha).
On to `CCOC(=O)c1cnn(Cc2ccc(O/C=C(\OCC)C(F)(F)F)cc2)c1` [Compound A-1.2, ethyl 1-[[4-[[(1Z)-2-ethoxy-3,3,3-trifluoro-1-propen-1-yl]oxy]phenyl]methyl]-1H-pyrazole-4-carboxylate], for which, in assay [1] (Phakopsora pachyrhizi, foliar, 0.1 g ai/ha, read-out: Observed Activity (%)), the inhibition at 0.1 g/ha worked out at 16%. Besides, the “Observed Activity (%)” value is 0% in assay [2] (10 g ai/ha); 0% in assay [2] (20 g ai/ha, 24 C, 620 nm); 0% in assay [3] (10 g ai/ha); 0% in assay [3] (20 g ai/ha, 24 C).
Consider `CCC(=O)Oc1c(OC)ccnc1C(=O)N[C@@H](C)C(=O)O[C@@H](C)[C@@H](C)c1ccccc1C` [Metarylpicoxamid, metarylpicoxamid], for which the figures for the “Observed Activity (%)” value in assay [1] (0.1 g ai/ha) and in assay [1] (0.3 g ai/ha) were 0% and 51%, respectively.

For the origin of these results see US20240389592A1, “FUNGICIDAL COMPOSITIONS” (SYNGENTA CROP PROTECTION AG, priority 2021, published 2024).
